Measured values taken from US20240327364A1, “THERAPEUTIC TARGETING OF GPR68 TO INDUCE FERROPTOSIS” (University Of Maryland, Baltimore, priority 2023, published 2024).

How the values were obtained:
RWGT2 = assay: Cell Titer-Glo viability, Lung cancer, squamous cell; format: cell-based
Experimental: OGM2 kills wide variety of cancer cell types. Cell sensitivity can be classified in to Very Sensitive (LC50<2 μM), Sensitive (LC50=2 to 10 μM), Mildly Sensitive (LC50>10 μM), and Refractory (no killing at 10 μM). The listed established cell were incubated with OGM2 at 2 μM or 10 μM for 72 hours under standard cell culture conditions, and relative cell number was assessed using Cell Titer-Glo Luminescent Cell Viability Assay (Promega™) following the manufacturer's instructions. Luminescence was determined using a Cytation 5 reader and Gen5 software package (BioTek™).
Cancer cells, which are very sensitive to killing by OGM2 (LCs <2 μM), with reported mRNA expression of GPR68 and the related proton sensing receptor GPR4. LC50's (concentrations causing 50% lethality) were determined using CellTiter-Glo (Promega™, G7570). Cells were plated in 12-well plates (CELLTREAT Scientific Products, 229112) in 1 ml of DMEM with high glucose, GlutaMAX, HEPES, or RPMI 1640 with Penicillin-Streptomycin (ThermoFisher™, 10564029, 11875119 and 15140122) and 10% FBS. Cells were incubated overnight at 37° C. in 5% CO2. Then 1 mL of fresh media was added with DMSO, OGM, or positive control (Erastin; APExBIO Technology, LLC, B1524) and cells incubated for 3 days. On the third day, all media was removed, cells were rinsed with 1×PBS, PBS was removed, and 200 μL of 1× Passive Lysis Buffer (Promega™, E1941) was added to each well. […]. Subsequently, 20 μL of lysate was added to 100 μL CellTiter-Glo™ reagent on a LUMITRAC 200 plate (Greiner™ bio-one, 82050-726). Plates were briefly spun down and read on a GloMax-Multi Detection System (Promega™).
The cells listed in the tables above were incubated with OGM2 at 2 μM or 10 μM for 72 hours under standard cell culture conditions, and relative cell number was assessed using Cell Titer-Glo Luminescent Cell Viability Assay (Promega™) following the manufacturer's instructions. Luminescence was determined using a Cytation 5 reader and Gen5 software package (BioTek™). RNA expression of GPR68 and GPR4 in the corresponding cancer cell lines are listed, according to the publicly available The Human Protein Atlas version 22.0 and Ensembl version 103.38 (see proteinatlas.org). The consensus normalized expression value (“nTPM”=normalize transcript per million) was calculated as the maximum nTPM value for each gene in the two data sources.

PIK3CG = biological target: T1, PIK3CG (Homo sapiens, UniProt P48736); assay: KinomeScan; format: binding; conditions: read-out: % Control
T1 construct: purchased DiscoveRx (Fremont, CA)

DDR1 = biological target: T2, DDR1 (Homo sapiens, UniProt Q08345); assay: KinomeScan; format: binding; conditions: read-out: % Control
T2 construct: purchased DiscoveRx (Fremont, CA), KinomeScan service

NEK9 = biological target: T3, NEK9 (Homo sapiens, UniProt Q8TD19); assay: KinomeScan; format: binding; conditions: read-out: % Control
T3 construct: purchased DiscoveRx

Y2 = biological target: T4, Y2 (Homo sapiens, UniProt P49146); assay: GPCR Profiler; format: cell-based
T4 construct: host or cells: Chem-1 cells expressing Galpha15
T4 sequence (P49146 whole entry): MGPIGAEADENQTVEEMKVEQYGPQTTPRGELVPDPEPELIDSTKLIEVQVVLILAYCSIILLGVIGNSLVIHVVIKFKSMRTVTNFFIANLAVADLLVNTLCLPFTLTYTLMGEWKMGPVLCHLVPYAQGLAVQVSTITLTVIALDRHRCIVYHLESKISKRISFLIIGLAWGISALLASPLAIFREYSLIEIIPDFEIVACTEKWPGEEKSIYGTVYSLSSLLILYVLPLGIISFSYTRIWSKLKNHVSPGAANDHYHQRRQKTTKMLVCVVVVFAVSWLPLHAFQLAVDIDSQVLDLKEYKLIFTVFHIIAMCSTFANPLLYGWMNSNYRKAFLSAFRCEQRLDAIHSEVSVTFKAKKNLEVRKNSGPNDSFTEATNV

RET = biological target: T5, RET (Homo sapiens, UniProt P07949); assay: KinomeScan; format: binding; conditions: read-out: % Control
T5 construct: purchased DiscoveRx (Fremont, CA)

CSF1R = CSF1R (Homo sapiens, UniProt P07333); assay: KinomeScan; format: binding; conditions: read-out: % Control
PYK2 = biological target: T6, PYK2 (Homo sapiens, UniProt Q14289); assay: KinomeScan; format: binding; conditions: read-out: % Control
T6 construct: purchased DiscoveRx (Fremont, CA)

ADRA1B = biological target: T7, ADRA1B (Homo sapiens, UniProt P35368); assay: GPCR Profiler; format: cell-based
T7 construct: host or cells: Chem-1 cells with promiscuous Gα15
T7 sequence (P35368 whole entry, species assumed): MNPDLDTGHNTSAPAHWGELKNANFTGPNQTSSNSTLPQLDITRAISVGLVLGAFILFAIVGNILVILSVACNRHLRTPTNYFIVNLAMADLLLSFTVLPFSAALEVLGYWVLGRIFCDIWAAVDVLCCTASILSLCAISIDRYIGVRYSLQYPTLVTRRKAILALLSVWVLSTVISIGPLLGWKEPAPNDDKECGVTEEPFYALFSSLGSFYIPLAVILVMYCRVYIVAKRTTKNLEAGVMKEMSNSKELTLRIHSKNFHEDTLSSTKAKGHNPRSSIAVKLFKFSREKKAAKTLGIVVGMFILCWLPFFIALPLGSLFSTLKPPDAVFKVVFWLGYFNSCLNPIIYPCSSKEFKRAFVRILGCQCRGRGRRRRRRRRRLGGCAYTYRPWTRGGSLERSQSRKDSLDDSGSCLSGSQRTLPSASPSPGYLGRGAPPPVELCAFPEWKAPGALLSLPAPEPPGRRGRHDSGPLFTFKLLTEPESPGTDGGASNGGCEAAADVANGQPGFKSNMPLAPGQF

H2 = biological target: T8, H2 (Homo sapiens, UniProt P25021); assay: GPCR Profiler; format: cell-based
T8 construct: host or cells: Chem-1 cells with promiscuous Gα15
T8 sequence (P25021 whole entry): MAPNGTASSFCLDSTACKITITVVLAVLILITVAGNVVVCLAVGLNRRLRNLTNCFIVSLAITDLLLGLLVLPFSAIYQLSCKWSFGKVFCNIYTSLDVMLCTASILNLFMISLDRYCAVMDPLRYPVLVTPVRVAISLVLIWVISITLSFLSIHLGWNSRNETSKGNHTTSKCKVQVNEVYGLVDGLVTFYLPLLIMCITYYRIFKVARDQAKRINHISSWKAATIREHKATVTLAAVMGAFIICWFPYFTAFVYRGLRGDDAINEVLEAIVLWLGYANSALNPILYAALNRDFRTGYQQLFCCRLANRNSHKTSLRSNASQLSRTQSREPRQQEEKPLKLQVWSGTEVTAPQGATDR

SLK = biological target: T9, SLK (Homo sapiens, UniProt Q9H2G2); assay: KinomeScan; format: binding; conditions: read-out: % Control
T9 construct: purchased DiscoveRx (Fremont, CA)

ARK5 = biological target: T10, ARK5 (Homo sapiens, UniProt O60285); assay: KinomeScan; format: binding; conditions: read-out: % Control
T10 construct: purchased DiscoveRx (Fremont, CA)

ERBB3 = biological target: T11, ERBB3 (Homo sapiens, UniProt P21860); assay: KinomeScan; format: binding; conditions: read-out: % Control
T11 construct: purchased DiscoveRx (Fremont, CA)

EPHA8 = biological target: T12, EPHA8 (Homo sapiens, UniProt P29322); assay: KinomeScan; format: binding; conditions: read-out: % Control
T12 construct: purchased DiscoveRx (Fremont, CA)

A2B = biological target: T13, A2B (Homo sapiens, UniProt P29275); assay: GPCR Profiler; format: cell-based
T13 construct: host or cells: Chem-1 cells with promiscuous Gα15
T13 sequence (P29275 whole entry): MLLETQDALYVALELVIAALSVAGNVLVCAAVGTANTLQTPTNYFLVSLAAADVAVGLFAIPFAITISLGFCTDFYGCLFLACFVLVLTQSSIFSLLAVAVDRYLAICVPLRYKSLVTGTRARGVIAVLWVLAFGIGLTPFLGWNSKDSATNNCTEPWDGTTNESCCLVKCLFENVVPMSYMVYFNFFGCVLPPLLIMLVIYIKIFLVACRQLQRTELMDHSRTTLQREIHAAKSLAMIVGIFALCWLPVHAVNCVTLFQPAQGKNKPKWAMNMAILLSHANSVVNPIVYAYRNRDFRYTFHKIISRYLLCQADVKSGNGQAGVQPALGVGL

MYO3A = biological target: T14, MYO3A (Homo sapiens, UniProt Q8NEV4); assay: KinomeScan; format: binding; conditions: read-out: % Control
T14 construct: purchased DiscoveRx
T14 sequence (Q8NEV4 whole entry): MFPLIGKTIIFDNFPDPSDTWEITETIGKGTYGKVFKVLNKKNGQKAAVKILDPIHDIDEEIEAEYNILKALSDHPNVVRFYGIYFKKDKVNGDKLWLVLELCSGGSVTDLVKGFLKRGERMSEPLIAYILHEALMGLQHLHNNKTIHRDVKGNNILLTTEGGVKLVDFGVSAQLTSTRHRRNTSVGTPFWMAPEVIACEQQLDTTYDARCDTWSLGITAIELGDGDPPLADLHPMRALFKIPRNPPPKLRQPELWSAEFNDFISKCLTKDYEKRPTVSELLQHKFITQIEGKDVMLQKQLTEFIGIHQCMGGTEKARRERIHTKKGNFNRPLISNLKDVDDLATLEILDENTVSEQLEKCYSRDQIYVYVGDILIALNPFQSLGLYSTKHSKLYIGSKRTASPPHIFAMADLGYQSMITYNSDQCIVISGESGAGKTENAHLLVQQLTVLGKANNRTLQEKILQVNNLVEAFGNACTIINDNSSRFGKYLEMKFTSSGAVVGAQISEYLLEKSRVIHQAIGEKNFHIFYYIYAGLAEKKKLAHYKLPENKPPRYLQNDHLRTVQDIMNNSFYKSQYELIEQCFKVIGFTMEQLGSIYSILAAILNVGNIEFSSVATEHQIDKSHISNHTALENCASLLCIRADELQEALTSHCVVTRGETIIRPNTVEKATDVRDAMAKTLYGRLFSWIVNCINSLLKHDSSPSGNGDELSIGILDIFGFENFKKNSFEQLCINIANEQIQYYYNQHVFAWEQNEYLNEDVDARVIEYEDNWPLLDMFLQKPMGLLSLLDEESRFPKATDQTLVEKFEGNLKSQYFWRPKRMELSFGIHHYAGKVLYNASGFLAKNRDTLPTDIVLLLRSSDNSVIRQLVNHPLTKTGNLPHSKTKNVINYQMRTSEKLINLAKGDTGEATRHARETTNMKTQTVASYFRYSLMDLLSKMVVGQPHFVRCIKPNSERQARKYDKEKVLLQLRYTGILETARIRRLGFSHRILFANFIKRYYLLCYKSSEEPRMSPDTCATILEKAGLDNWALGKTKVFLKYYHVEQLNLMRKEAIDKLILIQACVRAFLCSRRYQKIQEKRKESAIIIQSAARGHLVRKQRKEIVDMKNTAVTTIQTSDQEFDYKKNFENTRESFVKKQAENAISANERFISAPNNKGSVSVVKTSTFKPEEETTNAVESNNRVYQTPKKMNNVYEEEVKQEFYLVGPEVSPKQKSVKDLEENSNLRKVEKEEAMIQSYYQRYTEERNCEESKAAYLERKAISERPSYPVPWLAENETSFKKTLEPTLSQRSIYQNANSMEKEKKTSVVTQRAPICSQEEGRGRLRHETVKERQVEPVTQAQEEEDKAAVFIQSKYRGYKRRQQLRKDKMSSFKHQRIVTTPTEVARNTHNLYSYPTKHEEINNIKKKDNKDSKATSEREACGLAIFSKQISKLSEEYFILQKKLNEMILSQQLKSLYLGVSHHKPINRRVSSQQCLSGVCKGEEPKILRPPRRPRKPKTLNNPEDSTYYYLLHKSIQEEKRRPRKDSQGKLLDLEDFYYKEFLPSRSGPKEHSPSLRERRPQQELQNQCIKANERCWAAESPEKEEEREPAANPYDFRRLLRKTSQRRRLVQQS

OPRM1 = biological target: T15, OPRM1 (Homo sapiens, UniProt P35372); assay: GPCR Profiler; format: cell-based
T15 construct: host or cells: Chem-1 cells expressing Gα15
T15 sequence (P35372 whole entry, species assumed): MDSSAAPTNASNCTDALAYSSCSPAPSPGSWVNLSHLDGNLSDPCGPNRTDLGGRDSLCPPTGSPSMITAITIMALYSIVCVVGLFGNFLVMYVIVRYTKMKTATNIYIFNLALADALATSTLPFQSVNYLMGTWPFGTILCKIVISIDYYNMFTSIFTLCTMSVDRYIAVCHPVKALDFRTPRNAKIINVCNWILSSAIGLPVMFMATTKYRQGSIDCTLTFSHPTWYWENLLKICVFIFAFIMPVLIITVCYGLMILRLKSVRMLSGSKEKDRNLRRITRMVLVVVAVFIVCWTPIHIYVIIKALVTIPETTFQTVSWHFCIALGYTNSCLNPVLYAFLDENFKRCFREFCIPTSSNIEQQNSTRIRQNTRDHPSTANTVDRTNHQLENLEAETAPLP

ADRA1D = biological target: T16, ADRA1D (Homo sapiens, UniProt P25100); assay: GPCR Profiler; format: cell-based
T16 construct: host or cells: Chem-1 cells with promiscuous Gα15
T16 sequence (P25100 whole entry, species assumed): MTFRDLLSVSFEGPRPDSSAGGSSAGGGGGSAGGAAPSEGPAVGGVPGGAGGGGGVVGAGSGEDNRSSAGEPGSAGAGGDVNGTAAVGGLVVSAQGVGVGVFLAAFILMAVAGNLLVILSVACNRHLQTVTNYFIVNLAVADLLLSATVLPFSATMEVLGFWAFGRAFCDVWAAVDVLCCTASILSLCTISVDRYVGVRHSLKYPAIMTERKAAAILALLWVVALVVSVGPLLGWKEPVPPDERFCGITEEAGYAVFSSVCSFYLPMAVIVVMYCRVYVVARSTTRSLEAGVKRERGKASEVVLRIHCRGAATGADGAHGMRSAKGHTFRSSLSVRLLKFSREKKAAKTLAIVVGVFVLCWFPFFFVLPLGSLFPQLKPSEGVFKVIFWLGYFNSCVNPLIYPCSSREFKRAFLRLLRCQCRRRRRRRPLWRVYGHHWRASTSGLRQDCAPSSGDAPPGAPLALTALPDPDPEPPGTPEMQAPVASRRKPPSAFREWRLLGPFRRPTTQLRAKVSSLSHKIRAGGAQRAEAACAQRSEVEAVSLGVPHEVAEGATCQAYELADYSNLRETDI

GPR109A = biological target: T17, GPR109A (Homo sapiens, UniProt Q8TDS4); assay: GPCR Profiler; format: cell-based
T17 construct: host or cells: Chem-1 cells expressing Gα15
T17 sequence (Q8TDS4 whole entry): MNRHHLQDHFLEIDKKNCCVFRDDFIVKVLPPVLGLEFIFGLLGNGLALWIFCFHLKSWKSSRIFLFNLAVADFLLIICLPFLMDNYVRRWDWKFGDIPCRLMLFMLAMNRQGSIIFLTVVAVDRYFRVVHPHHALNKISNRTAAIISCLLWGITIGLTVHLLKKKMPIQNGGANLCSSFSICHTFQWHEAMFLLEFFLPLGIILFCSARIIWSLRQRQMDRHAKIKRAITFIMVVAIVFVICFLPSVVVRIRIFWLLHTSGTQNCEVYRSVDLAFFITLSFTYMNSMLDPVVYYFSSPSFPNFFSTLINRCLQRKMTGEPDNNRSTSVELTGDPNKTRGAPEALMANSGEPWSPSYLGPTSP

LCK = biological target: T18, LCK (Homo sapiens, UniProt P06239); assay: KinomeScan; format: binding; conditions: read-out: % Control
T18 construct: purchased DiscoveRx

## CCc1ccc2c(c1)C1(NN=C(c3ccccc3)S1)C(=O)N2 (stereo not drawn) [OGM2]
RWGT2
  Class: Very Sensitive (Very Sensitive (LC50<2 μM))
RWGT2; 72 hours
  % Survival 2 μM OGM: 39.9%
  % Survival 10 μM OGM: 37.1%
RWGT2; Homo sapiens, 72 hours, read-out: LC50 (the source's name)
  CC50: < 2000 nM

## CCc1ccc2c(c1)C1(NN=C(c3cccc4ccccc34)S1)C(=O)N2 (stereo not drawn) [OGM1, 5-ethyl-5′-naphthalen-1-ylspiro[1H-indole-3,2′-3H-1,3,4-thiadiazole]-2-one]
PIK3CG
  remaining binding at 10 µM: 100%
DDR1
  remaining binding at 10 µM: 100%
NEK9
  remaining binding at 10 µM: 100%
Y2; 10 uM
  Antagonism: −0.6
Y2; 12.5 uM
  Agonism: 2.5
RET
  remaining binding at 10 µM: 100%
CSF1R
  remaining binding at 10 µM: 78%
PYK2
  remaining binding at 10 µM: 100%
ADRA1B; 10 uM
  Antagonism: 1
ADRA1B; 12.5 uM
  Agonism: 0.1
H2; 10 uM
  Antagonism: 1.3
H2; 12.5 uM
  Agonism: 0.1
SLK
  remaining binding at 10 µM: 90%
ARK5
  remaining binding at 10 µM: 80%
ERBB3
  remaining binding at 10 µM: 84%
EPHA8
  remaining binding at 10 µM: 100%
A2B; 10 uM
  Antagonism: −12.8
A2B; 12.5 uM
  Agonism: 4.4
MYO3A
  remaining binding at 10 µM: 95%
OPRM1; 10 uM
  Antagonism: −0.7
OPRM1; 12.5 uM
  Agonism: −0.7
ADRA1D; 10 uM
  Antagonism: −5.7
ADRA1D; 12.5 uM
  Agonism: 0.8
GPR109A; 10 uM
  Antagonism: 20.3
GPR109A; 12.5 uM
  Agonism: −0.2
LCK
  remaining binding at 10 µM: 100%
